These results are taken from patent publication US12350270B2, “Antimalarial agents” (Merck Sharp & Dohme LLC, priority 2019, dated 2025).

The assay deals with parasites (ring stage, in human red blood cell culture). The experiment in a line: Parasite LDH growth assay (antiparasite potency, Parasite Assay). In kind it is cell-based, Plasmodium falciparum. The following applies: 0.7% rings, 2% haematocrit, 72 hours at 37° C., LDH readout of parasite growth. A digest of the protocol: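 Growth was read by an LDH assay after a freeze–thaw cycle (−80 °C overnight, 4 h thaw at RT). Before that, parasites grew with compound for 72 h at 37 °C under gassed, humidified conditions. The input was a ring-stage culture adjusted to 0.7% parasitemia and 2% haematocrit in serum (5%)/albumax (0.5%)-supplemented RPMI-Hepes.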

[1] abbreviates: Plasmodium falciparum, Erythrocyte, 72 h.

Regarding `CCC1(CC)CC(=O)N([C@H]2c3cc(C(=O)NC4c5ccccc5CC4(C)O)ccc3OC2(C)COC)C(=N)N1` (stereo partly drawn) [Example 76A, (2S,3S)-3-(4,4-diethyl-2-imino-6-oxotetrahydropyrimidin-1(2H)-yl)-N-(2-hydroxy-2-methyl-2,3-dihydro-1H-inden-1-yl)-2-(methoxymethyl)-2-methyl-2,3-dihydrobenzofuran-5-carboxamide], the EC50 turned out to be 8.5 nM. This lies in the single-digit nanomolar range.

Compound `CCC1(CC)CC(=O)N([C@H]2c3cc(C(=O)NC4c5ccccc5CC4(C)O)ccc3OC2(C)COC)C(=N)N1` (stereo partly drawn) [Example 76B, (2S,3S)-3-(4,4-diethyl-2-imino-6-oxotetrahydropyrimidin-1(2H)-yl)-N-(2-hydroxy-2-methyl-2,3-dihydro-1H-inden-1-yl)-2-(methoxymethyl)-2-methyl-2,3-dihydrobenzofuran-5-carboxamide] yielded an EC50 of 1.1 nM.

As for `CCC1(CC)CC(=O)N([C@H]2c3cc(C(=O)NC4c5ccccc5CC4(C)O)ccc3OC2(C)COC)C(=N)N1` (stereo partly drawn) [Example 77A, (2S,3S)-3-(4,4-diethyl-2-imino-6-oxotetrahydropyrimidin-1(2H)-yl)-N-(2-hydroxy-2-methyl-2,3-dihydro-1H-inden-1-yl)-2-(methoxymethyl)-2-methyl-2,3-dihydrobenzofuran-5-carboxamide], a half-maximal response (EC50) required 57.1 nM.

Regarding `CCC1(CC)CC(=O)N([C@H]2c3cc(C(=O)NC4c5ccccc5CC4(C)O)ccc3OC2(C)COC)C(=N)N1` (stereo partly drawn) [Example 77B, (2S,3S)-3-(4,4-diethyl-2-imino-6-oxotetrahydropyrimidin-1(2H)-yl)-N-(2-hydroxy-2-methyl-2,3-dihydro-1H-inden-1-yl)-2-(methoxymethyl)-2-methyl-2,3-dihydrobenzofuran-5-carboxamide], the midpoint of the response, the EC50, lay at 21.4 nM.

Under setting [1], `CC1(C)CC(=O)N([C@@H]2CCc3ccc(C(=O)N[C@@H]4c5ccccc5C[C@H]4O)cc32)C(=N)N1` [Example 78, (3R)-N-[(1R,2R)-2-hydroxyindan-1-yl]-3-(2-imino-4,4-dimethyl-6-oxo-hexahydropyrimidin-1-yl)indane-5-carboxamide] showed an EC50 of 8.9 nM.

As to `CC1(C)CC(=O)N([C@@H]2CCc3ccc(C(=O)N[C@@H]4c5ccccc5C[C@]4(C)O)cc32)C(=N)N1` [Example 79, (3R)-N-[(1R,2S)-2-hydroxy-2-methyl-indan-1-yl]-3-(2-imino-4,4-dimethyl-6-oxo-hexahydropyrimidin-1-yl)indane-5-carboxamide], the EC50 under setting [1] came out at 9.6 nM. This EC50 and that of the compound before are within 1.5-fold of each other.

For `CC1(C)CC(=O)N([C@@H]2CCc3ccc(C(=O)N[C@@H]4c5ccccc5C[C@@]4(C)O)cc32)C(=N)N1` [Example 80, (3R)-N-[(1R,2R)-2-hydroxy-2-methyl-indan-1-yl]-3-(2-imino-4,4-dimethyl-6-oxo-hexahydropyrimidin-1-yl)indane-5-carboxamide], a half-maximal effect under setting [1] (EC50) was put at 18 nM.

In turn, `CC[C@]1(C)CC(=O)N([C@@H]2CCc3ccc(C(=O)N[C@@H]4c5ccccc5C[C@H]4O)cc32)C(=N)N1` [Example 81, (3R)-3-[(4R)-4-ethyl-2-imino-4-methyl-6-oxo-hexahydropyrimidin-1-yl]-N-[(1R,2R)-2-hydroxyindan-1-yl]indane-5-carboxamide] returned an EC50 under setting [1] of 6.6 nM.

Under setting [1], `C[C@@H]1C[C@@H](N2C(=N)NC(C)(C)CC2=O)c2cc(C(=O)N[C@@H]3c4ccccc4C[C@H]3O)ccc21` [Example 82, (1R,3R)-N-[(1R,2R)-2-hydroxyindan-1-yl]-3-(2-imino-4,4-dimethyl-6-oxo-hexahydropyrimidin-1-yl)-1-methyl-indane-5-carboxamide] displayed an EC50 of 15.5 nM.

For `CCC1(CC)CC(=O)N([C@@H]2Cc3ccc(C(=O)N[C@@H]4c5ccccc5C[C@H]4O)cc32)C(=N)N1` [Example 83, (8R)-8-(4,4-diethyl-2-imino-6-oxo-hexahydropyrimidin-1-yl)-N-[(1R,2R)-2-hydroxyindan-1-yl]bicyclo[4.2.0]octa-1(6),2,4-triene-3-carboxamide], under setting [1], the EC50 was determined as 20 nM.

As to `CC1(C)CC(=O)N([C@@H]2CCc3ccc(C(=O)N[C@H]4CC(C)(C)Oc5ccccc54)cc32)C(=N)N1` [Example 84, (3R)-N-[(4S)-2,2-dimethylchroman-4-yl]-3-(2-imino-4,4-dimethyl-6-oxo-hexahydropyrimidin-1-yl)indane-5-carboxamide], under setting [1], the EC50 is 0.9 nM.

In turn, `CCC1(CC)CC(=O)N([C@@H]2CCc3ccc(C(=O)N[C@@H]4c5ccccc5C[C@H]4O)cc32)C(=N)N1` [Example 85, (3R)-3-(4,4-diethyl-2-imino-6-oxo-hexahydropyrimidin-1-yl)-N-[(1R,2R)-2-hydroxyindan-1-yl]indane-5-carboxamide] had an EC50 under setting [1] of 10.7 nM.

`CC1(C)CC(=O)N(C2CC(C)(C)c3ccc(C(=O)N[C@@H]4c5ccccc5C[C@H]4O)cc32)C(=N)N1` (stereo partly drawn) [Example 86, N-[(1R,2R)-2-hydroxyindan-1-yl]-3-(2-imino-4,4-dimethyl-6-oxo-hexahydropyrimidin-1-yl)-1,1-dimethyl-indane-5-carboxamide] had a concentration for a half-maximal effect (EC50) under setting [1] of 87.8 nM.

For `CC1(C)CC(=O)N([C@H]2c3cc(C(=O)N[C@@H]4c5ccccc5C[C@H]4O)ccc3CC2(C)C)C(=N)N1` [Example 87, N-[(1R,2R)-2-hydroxyindan-1-yl]-3-(2-imino-4,4-dimethyl-6-oxo-hexahydropyrimidin-1-yl)-2,2-dimethyl-indane-5-carboxamide], under setting [1], the concentration for a half-maximal effect (EC50) came out at 105 nM.

`CC[C@]1(C)CC(=O)N([C@@H]2C[C@@H](C)c3ccc(C(=O)N[C@@H]4c5ccccc5C[C@H]4O)cc32)C(=N)N1` [Example 88, (1R,3R)-3-[(4R)-4-ethyl-2-imino-4-methyl-6-oxo-hexahydropyrimidin-1-yl]-N-[(1R,2R)-2-hydroxyindan-1-yl]-1-methyl-indane-5-carboxamide] displayed an EC50 under setting [1] of 3.4 nM.

As to `C[C@@H]1C[C@@H](N2C(=N)NC(C)(C)CC2=O)c2cc(C(=O)N[C@@H]3c4ccccc4C[C@@]3(C)O)ccc21` [Example 89, (1R,3R)-N-[(1R,2R)-2-hydroxy-2-methyl-indan-1-yl]-3-(2-imino-4,4-dimethyl-6-oxo-hexahydropyrimidin-1-yl)-1-methyl-indane-5-carboxamide], the midpoint of the response under setting [1], the EC50, lay at 43.5 nM.

Take `C[C@@H]1C[C@@H](N2C(=N)NC(C)(C)CC2=O)c2cc(C(=O)N[C@@H]3c4ccccc4C[C@]3(C)O)ccc21` [Example 90, (1R,3R)-N-[(1R,2S)-2-hydroxy-2-methyl-indan-1-yl]-3-(2-imino-4,4-dimethyl-6-oxo-hexahydropyrimidin-1-yl)-1-methyl-indane-5-carboxamide]: under setting [1], the EC50 came out at 26.8 nM.

In the case of `CC1(C)CC(=O)N(C2c3cc(C(=O)N[C@@H]4c5ccccc5C[C@H]4O)ccc3OC2(C)C)C(=N)N1` (stereo partly drawn) [Example 91, N-[(1R,2R)-2-hydroxyindan-1-yl]-3-(2-imino-4,4-dimethyl-6-oxo-hexahydropyrimidin-1-yl)-2,2-dimethyl-3H-benzofuran-5-carboxamide], the EC50 under setting [1] worked out at 45.2 nM.

Take `CCC1(CC)CC(=O)N([C@@H]2CCOc3ccc(C(=O)N[C@@H](CO)c4ccccc4)cc32)C(=N)N1` [Example 92, (4R)-4-(4,4-diethyl-2-imino-6-oxo-hexahydropyimidin-1-yl)-N-[(1R)-2-hydroxy-1-phenyl-ethyl]chromane-6-carboxamide]: under setting [1], a half-maximal effect (EC50) was put at 97.2 nM.

As to `CC1(C)CC(=O)N(C2CC(C)(C)c3ccc(C(=O)N[C@@H]4c5ccccc5C[C@@]4(C)O)cc32)C(=N)N1` (stereo partly drawn) [Example 93, N-[(1R,2R)-2-hydroxy-2-methyl-indan-1-yl]-3-(2-imino-4,4-dimethyl-6-oxo-hexahydropyrimidin-1-yl)-1,1-dimethyl-indane-5-carboxamide], under setting [1], the EC50 worked out at 190 nM. Compared with the last compound, the EC50 is about 2-fold higher.

As to `CCC1(CC)CC(=O)N([C@@H]2CCCc3ccc(C(=O)N[C@@H]4c5ccccc5C[C@H]4O)cc32)C(=N)N1` [Example 94, (4R)-4-(4,4-diethyl-2-imino-6-oxo-hexahydropyrimidin-1-yl)-N-[(1R,2R)-2-hydroxyindan-1-yl]tetralin-6-carboxamide], the response under setting [1] was half-maximal at 1.9 nM (EC50).

For `CC[C@]1(C)CC(=O)N([C@@H]2C[C@@H](C)c3ccc(C(=O)N[C@@H]4c5ccccc5C[C@@]4(C)O)cc32)C(=N)N1` [Example 95, (1R,3R)-3-[(4R)-4-ethyl-2-imino-4-methyl-6-oxo-hexahydropyrimidin-1-yl]-N-[(1R,2R)-2-hydroxy-2-methyl-indan-1-yl]-1-methyl-indane-5-carboxamide], the EC50 under setting [1] worked out at 8.8 nM. This EC50 is about 4.6-fold higher than that of the compound before.

As for `CC[C@]1(C)CC(=O)N([C@@H]2C[C@@H](C)c3ccc(C(=O)N[C@@H]4c5ccccc5C[C@]4(C)O)cc32)C(=N)N1` [Example 96, (1R,3R)-3-[(4R)-4-ethyl-2-imino-4-methyl-6-oxo-hexahydropyrimidin-1-yl]-N-[(1R,2S)-2-hydroxy-2-methyl-indan-1-yl]-1-methyl-indane-5-carboxamide], a half-maximal effect under setting [1] (EC50) was put at 6.5 nM.

For the compound `CCC1(CC)CC(=O)N([C@@H]2CCOc3ccc(C(=O)N[C@@H]4c5ccccc5C[C@H]4N)cc32)C(=N)N1` [Example 97, (4R)-N-[(1R,2R)-2-aminoindan-1-yl]-4-(4,4-diethyl-2-imino-6-oxo-hexahydropyrimidin-1-yl)chromane-6-carboxamide], a half-maximal effect under setting [1] (EC50) was put at 19 nM.

The compound `CC1(C)CC(=O)N([C@@H]2CCc3ccc(C(=O)N[C@@H]4c5ccccc5OC(C)(C)[C@H]4O)cc32)C(=N)N1` [Example 98, (3R)-N-[(3S,4R)-3-hydroxy-2,2-dimethyl-chroman-4-yl]-3-(2-imino-4,4-dimethyl-6-oxo-hexahydropyrimidin-1-yl)indane-5-carboxamide] registered an EC50 under setting [1] of 1.5 nM.

`CC[C@]1(C)CC(=O)N([C@@H]2CCc3ccc(C(=O)N[C@@H]4c5ccccc5OC[C@]4(C)O)cc32)C(=N)N1` [Example 99, (3R)-3-[(4R)-4-ethyl-2-imino-4-methyl-6-oxo-hexahydropyrimidin-1-yl]-N-[(3R,4R)-3-hydroxy-3-methyl-chroman-4-yl]indane-5-carboxamide] returned an EC50 under setting [1] of 4.2 nM.
